In patent US8951340B2, “Water-insoluble coloring matter compound, ink using the water-insoluble coloring matter compound, thermal transfer recording sheet and resist composition for color filter” (Canon Kabushiki Kaisha, priority 2011, dated 2015) one finds solubility and solubility in water data, which are given here for twelve compounds.

Like-named read-outs stand apart in the source and are kept apart here.

A short description of data set [1]: Evaluation of solubility of compound for solvent (30 mg in 0.7 mL, visually observed). The format is physicochemical. To be noted: organic solvent or mixture, thermodynamic from solid, room temperature, visual. The procedure: 30 mg of each of water-insoluble coloring matter compounds (1), (4), (6), (8) to (10), (14), (15), (20), and (21) and comparative compounds (1) to (3) was dissolved at room temperature in 0.7 mL of toluene, 0.7 mL of methanol, 0.7 mL of ethyl acetate, and 0.7 mL of chloroform, respectively. These solutions were visually observed, and the solubility of the compound for the solvent was evaluated.
A: completely dissolved (solubility is very good)
B: slightly suspended (solubility is good)
C: not dissolved at all (solubility is bad)

Data set [2] is described as follows: Solubility in water of the compound at room temperature and at 60° C. The note with it: mass percentage. The format is physicochemical. The source says:
The water-insoluble coloring matter compound represented by the formula (1) according to the present invention has high affinity for an organic solvent. In the present invention, “water-insoluble” means that solubility in water is less than 1% in terms of mass percentage.

Where [3] appears, read: 30 mg in 0.7 mL chloroform, read-out: Solubility Chloroform.
Where [4] appears, read: 30 mg in 0.7 mL ethyl acetate, read-out: Solubility Ethyl acetate.
Where [5] appears, read: 30 mg in 0.7 mL methanol, read-out: Solubility Methanol.
[6] abbreviates: 30 mg in 0.7 mL toluene, read-out: Solubility Toluene.

With `Cn1c(=O)cc2c3c(c(Nc4ccccc4)ccc31)C(=O)c1ccccc1-2` [(1)], the solubility in data set [1] (setting [3]), in data set [1] (setting [4]), in data set [1] (setting [5]) and in data set [1] (setting [6]) was less than 42.9 mg/mL in each case.

In the case of `Cc1ccc(Nc2ccc3c4c(cc(=O)n3C)-c3ccccc3C(=O)c24)cc1` [(2)], the solubility in data set [1] (setting [3]), in data set [1] (setting [4]), in data set [1] (setting [5]) and in data set [1] (setting [6]) was less than 42.9 mg/mL each time.

On to `CCCCn1c(=O)c(C(=O)c2ccccc2)c2c3c(c(Nc4ccc(C)cc4)ccc31)C(=O)c1ccccc1-2` [(3)], for which the solubility in data set [1] (setting [3]), in data set [1] (setting [4]), in data set [1] (setting [5]) and in data set [1] (setting [6]) was less than 42.9 mg/mL throughout.

For `CCCCC(CC)CNc1ccc2c3c1C(=O)c1ccccc1-c3c(C(C)=O)c(=O)n2CCCC` (stereo not drawn) [Compound (1)], the solubility in water result in data set [2] (60° C.) and in data set [2] (room temperature) was “less than 1%” each time.

With `CCCCC(CC)CNc1ccc2c3c1C(=O)c1ccccc1-c3c(C(=O)c1ccccc1)c(=O)n2CCCC` (stereo not drawn) [Compound (4)], the solubility in water entry in data set [2] (60° C.) and in data set [2] (room temperature) was “less than 1%” in each case.

`CCCCC(CC)CNc1ccc2c3c1C(=O)c1ccccc1-c3c(C(=O)c1ccc(OC)cc1)c(=O)n2CCCC` (stereo not drawn) [Compound (6)]: the solubility in water entry in data set [2] (60° C.) and in data set [2] (room temperature) was “less than 1%” throughout.

Consider `CCCCC(CC)CNc1ccc2c3c1C(=O)c1ccccc1-c3c(C(=O)c1ccccc1)c(=O)n2CC(CC)CCCC` (stereo not drawn) [Compound (8)], for which the solubility in water entry in data set [2] (60° C.) and in data set [2] (room temperature) was “less than 1%” in each case.

For `CCCCC(CC)CNc1ccc2c3c1C(=O)c1ccccc1-c3c(C(=O)OCC)c(=O)n2CC(CC)CCCC` (stereo not drawn) [Compound (9)], the solubility in water result in data set [2] (60° C.) and in data set [2] (room temperature) was “less than 1%” in each case.

In the case of `CCCCOCCCNc1ccc2c3c1C(=O)c1ccccc1-c3c(C(=O)c1ccccc1)c(=O)n2CC(CC)CCCC` (stereo not drawn) [Compound (10)], the solubility in water entry in data set [2] (60° C.) and in data set [2] (room temperature) was “less than 1%” throughout.

For the compound `CCCCC(CC)CNc1ccc2c3c1C(=O)c1ccccc1-c3c(C(=O)c1ccccc1)c(=O)n2C` (stereo not drawn) [Compound (14)], the solubility in water entry in data set [2] (60° C.) and in data set [2] (room temperature) was “less than 1%” in each case.

Take `CCCCC(CC)Cn1c(=O)c(C(=O)c2ccccc2)c2c3c(c(NC4CCCCC4)ccc31)C(=O)c1ccccc1-2` (stereo not drawn) [Compound (15)]: the solubility in water result in data set [2] (60° C.) and in data set [2] (room temperature) was “less than 1%” in each case.

For the compound `CCCCNc1ccc2c3c1C(=O)c1ccccc1-c3c(C(=O)c1ccccc1)c(=O)n2CCCC` [Compound (21)], the solubility in water result in data set [2] (60° C.) and in data set [2] (room temperature) was “less than 1%” throughout.
